Experimental data from PMC7699381, “Rare-Earth Metal Complexes of the Antibacterial Drug Oxolinic Acid: Synthesis, Characterization, DNA/Protein Binding and Cytotoxicity Studies” (Molecules, 2020).

Key:
Apo-transferrin (apo-Tf) = biological target: T1, Apo-transferrin (apo-Tf) (Homo sapiens, UniProt P02787); experiment: Fluorescence quenching of apo-transferrin; assay type: binding; conditions: 298 K; for Ksv (Stern-Volmer constant), apo-Tf: 1 µM apo-Tf, 0–8 µM compound, pH 7.4; for Kq (bimolecular quenching constant), apo-Tf: from KSV = Kq τ0; for fa (fraction of fluorophore accessible to the quencher), apo-Tf: modified Stern-Volmer; for Kd: read-out: Kd, apo-Tf
T1 construct: purchased Sigma Aldrich Chemical Co. (Schnelldorf, Germany)
T1 sequence (P02787 20-698): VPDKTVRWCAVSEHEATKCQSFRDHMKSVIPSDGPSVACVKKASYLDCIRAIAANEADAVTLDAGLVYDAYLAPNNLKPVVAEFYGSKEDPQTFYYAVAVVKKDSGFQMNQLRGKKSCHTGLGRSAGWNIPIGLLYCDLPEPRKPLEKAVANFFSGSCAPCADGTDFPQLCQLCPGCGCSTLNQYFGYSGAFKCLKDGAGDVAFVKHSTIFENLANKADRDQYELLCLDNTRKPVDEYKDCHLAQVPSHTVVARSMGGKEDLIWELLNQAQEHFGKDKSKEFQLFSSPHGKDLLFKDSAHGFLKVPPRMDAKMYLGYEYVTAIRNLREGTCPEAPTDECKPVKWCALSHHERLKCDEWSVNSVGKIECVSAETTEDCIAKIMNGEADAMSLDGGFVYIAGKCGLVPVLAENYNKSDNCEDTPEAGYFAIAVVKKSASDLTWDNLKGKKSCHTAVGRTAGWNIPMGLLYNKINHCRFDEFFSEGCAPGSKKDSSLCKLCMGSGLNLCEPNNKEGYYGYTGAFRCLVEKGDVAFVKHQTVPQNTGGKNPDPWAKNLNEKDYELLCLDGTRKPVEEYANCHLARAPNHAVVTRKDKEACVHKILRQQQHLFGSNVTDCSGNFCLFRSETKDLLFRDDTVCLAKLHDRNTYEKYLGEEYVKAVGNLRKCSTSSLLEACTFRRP

[1] = system: HUVEC (normal human umbilical vein endothelial cells); experiment: MTS cytotoxicity assay, HUVEC normal cells; assay type: cell-based; conditions: 48 h of incubation
Procedure: (§1) For the evaluation of the cytotoxic effects of the complexes and ligand two human cancer cell lines were used, namely MDA-MB 231 (human breast adenocarcinoma) and LoVo (human colon adenocarcinoma); a normal cell line, human umbilical vein endothelial cells (HUVEC), was used as a reference. […] After 24 h and 48 h, respectively, cell viability was evaluated through MTS assay (data shown in Figures S16–S18) and the IC50 values were calculated (Table 5). The cytotoxicity assay is based on the ability of metabolically active cells to reduce MTS, a yellow tetrazolium salt, to the colored formazan, soluble in the culture medium; the concentration of formazan can be spectrophotometrically determined. […] PES is a cationic dye with high chemical stability that binds to MTS and forms a stable solution. […] The reduced MTS to formazan was spectrophotometrically measured at λ = 492 nm. The test was run on two cancer cell lines, LoVo and MDA-MB 231, and on a normal cell line, HUVEC. […] Cell viability data were obtained in triplicate (n = 3) and expressed as mean values ± standard deviations (SD). […] All assays were performed in 96-well microtiter plates with flat bottom (Falcon), using CellTiter 96 Aqueous One Solution Cell Proliferation Assay (Promega), an MTS-based colorimetric assay. The formazan was spectrophotometrically measured using the Tecan GENios Spectrophotometer.

[2] = system: LoVo (human colon adenocarcinoma); experiment: MTS cytotoxicity assay, LoVo cells; assay type: cell-based; conditions: 48 h of incubation
Procedure: as §1

[3] = system: CT-DNA (double-stranded calf-thymus DNA); experiment: DNA binding by UV-Vis spectra (titration with CT-DNA); conditions: 20 µM compound, 0–40 µM DNA, Tris-HCl pH 7.4, room temperature
EB-DNA system (CT-DNA) = experiment: Competitive binding assay with ethidium bromide (EB) through fluorescence spectroscopy; parameters: species or system calf; conditions: 10 µM CT-DNA, 2 µM EB; for Ksv (Stern-Volmer quenching constant, EB-DNA system): 0–40 µM compound, λex 500 nm; for K50 (EB Displacement Assay): concentration corresponding to 50% binding
From the text: The manner of binding to the DNA macromolecule can be investigated through competitive binding studies with ethidium bromide (3,8-diamino-5-ethyl-6-phenylphenanthridinium bromide), a fluorescent dye; due to its aromatic ring, it can intercalate between two adjacent base pairs in the DNA structure and form a complex which emits fluorescent light; displacing EB results in a quenching effect. The Stern-Volmer constant (KSV) and the dissociation constant (K50) have been calculated from the resulting data.
Competitive binding studies were carried out on a Jasco FP 6500 fluorometer at room temperature, using quartz cells of 1 cm path-length. The fluorescence spectra were recorded on 1.6 mL samples containing 10 µM CT-DNA and 2 µM EB in the absence and presence of increasing amounts (0–40 µM with an increment of 5 µM) of complexes and free ligands, respectively, after being kept in contact for 10 min at room temperature, under continuous stirring and in the dark. The excitation wavelength used was 500 nm and the spectra was recorded in the 520–800 nm range. Two control samples were used, the first one containing DMSO, DNA and EB and the second one just the complex.
Data from the assay can be interpreted using the classical Stern-Volmer equation (Equation (3)):(3) F0/F=1+ KSV·[Q] where F0 and F are the fluorescence intensities of the EB-DNA samples in the absence and presence of the tested compounds and [Q] is the concentration of the compound; KSV is the Stern-Volmer constant and can be calculated from the plot of F0/F vs. [Q] as the slope.
The ratio of binding relative to the control sample exposed only to DMSO was plotted against the logarithm of concentration. The data points were fitted using the modified Hill function with offset (Origin®) (Equation (4)):(4) y=A1+(A2−A1)×x^n/K50^n+x^n where y is the ratio of binding (F/F0) and x is the concentration, A1 is the minimum of y values, A2 is the maximum of y values, K50 is the concentration corresponding to 50% binding and n is the Hill coefficient.

[4] = biological target: T2, Human serum albumin (HSA) (Homo sapiens, UniProt P02768)
T2 sequence (P02768 25-609): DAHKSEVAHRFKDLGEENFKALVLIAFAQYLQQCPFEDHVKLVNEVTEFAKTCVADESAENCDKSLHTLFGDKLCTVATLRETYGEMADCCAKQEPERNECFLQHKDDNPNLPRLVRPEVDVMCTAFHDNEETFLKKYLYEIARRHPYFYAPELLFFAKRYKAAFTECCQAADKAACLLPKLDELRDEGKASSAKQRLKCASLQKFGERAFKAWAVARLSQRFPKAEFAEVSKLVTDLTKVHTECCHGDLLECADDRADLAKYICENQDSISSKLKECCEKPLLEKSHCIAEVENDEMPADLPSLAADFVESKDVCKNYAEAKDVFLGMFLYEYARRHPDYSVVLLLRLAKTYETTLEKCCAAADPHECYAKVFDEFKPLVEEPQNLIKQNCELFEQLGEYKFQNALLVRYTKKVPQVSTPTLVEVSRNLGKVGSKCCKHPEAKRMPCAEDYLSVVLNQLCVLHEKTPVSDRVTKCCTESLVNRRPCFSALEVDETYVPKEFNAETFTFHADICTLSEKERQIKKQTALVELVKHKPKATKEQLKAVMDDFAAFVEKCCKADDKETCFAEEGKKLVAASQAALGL

[5] = biological target: T2, Human serum albumin (HSA); experiment: Fluorescence quenching of human serum albumin; conditions: 298 K; for Ksv (Stern-Volmer constant), HSA: 2.5 µM HSA, 0–8 µM compound, pH 7.4; for Kq (bimolecular quenching constant), HSA: from KSV = Kq τ0; for fa (fraction of fluorophore accessible to the quencher), HSA: modified Stern-Volmer
[6] = system: MDA-MB 231 (human breast adenocarcinoma); experiment: MTS cytotoxicity assay, MDA-MB 231 cells; assay type: cell-based; conditions: 48 h of incubation
Procedure: as §1

SMILES | Ka (association binding constant), apo-Tf (Apo-transferrin (apo-Tf)) | n (Hill Coefficient), apo-Tf (Apo-transferrin (apo-Tf)) | n (Number of Binding Sites), apo-Tf (Apo-transferrin (apo-Tf)) | Ksv (Stern-Volmer constant), apo-Tf (Apo-transferrin (apo-Tf)) | Kq (bimolecular quenching constant), apo-Tf (Apo-transferrin (apo-Tf)) [M⁻¹ s⁻¹] | fa (fraction of fluorophore accessible to the quencher), apo-Tf (Apo-transferrin (apo-Tf)) | Kd (Apo-transferrin (apo-Tf)) [µM] | IC50 [1] [µM] | IC50 [2] [µM] | Kb (DNA binding constant) [3] | Ksv (Stern-Volmer quenching constant, EB-DNA system) (EB-DNA system (CT-DNA)) | K50 (EB Displacement Assay) (EB-DNA system (CT-DNA)) [µM] | Kd [4] [µM] | Ka (association binding constant), HSA [5] | n (Hill Coefficient), HSA [5] | n (Number of Binding Sites), HSA [5] | Ksv (Stern-Volmer constant), HSA [5] | Kq (bimolecular quenching constant), HSA [5] [M⁻¹ s⁻¹] | fa (fraction of fluorophore accessible to the quencher), HSA [5] | IC50 [6] [µM] | also measured
CCn1cc(C(=O)[O][La]([OH])[O]C(=O)c2cn(CC)c3cc4c(cc3c2=O)OCO4)c(=O)c2cc3c(cc21)OCO3.O [La oxo, [La(oxo)(OH)(H2O)]] | (0.53 ± 0.23) × 10^4 M^−1 | 1.71 ± 0.21 | 0.77 ± 0.03 | (14.13 ± 1.46) × 10^4 M^−1 | 1.413e+13 | 0.68 ± 0.03 | 8.89 ± 2.11 | > 200 | 52.1 ± 5.54 | 2.57 (± 0.17) × 10^5 L∙mol^−1 | 1.27 (±0.03) × 10^4 | 37.05 ± 8.86 | 6.22 ± 1.05 | (5.80 ± 2.01) × 10^5 M^−1 | 1.74 ± 0.21 | 1.14 ± 0.02 | (6.82 ± 0.74) × 10^4 M^−1 | 6.82e+12 | 1.26 ± 0.11 | > 100 | Ksv (Stern-Volmer quenching constant, EB-DNA system) (EB-DNA system (CT-DNA); listed as La-oxo): (1.27 ± 0.03) × 10^4
CCn1cc(C(=O)[O][Sm]([OH])[O]C(=O)c2cn(CC)c3cc4c(cc3c2=O)OCO4)c(=O)c2cc3c(cc21)OCO3.O.O [Sm oxo, [Sm(oxo)(OH)(H2O)] · H2O] | (4.16 ± 1.09) × 10^4 M^−1 | 2.03 ± 0.32 | 0.95 ± 0.02 | (9.34 ± 0.66) × 10^4 M^−1 | 9.34e+12 | 0.85 ± 0.05 | 5.73 ± 0.55 | > 200 | 41.5 ± 15.3 | 9.33 (± 1.46) × 10^4 L∙mol^−1 | (1.21 ± 0.03) × 10^4 | 41.55 ± 19.32 | 4.69 ± 0.87 | (4.28 ± 2.12) × 10^5 M^−1 | 1.55 ± 0.37 | 1.11 ± 0.04 | (6.56 ± 0.90) × 10^4 M^−1 | 6.56e+12 | 1.44 ± 0.15 | 40.4 ± 6.27 | 
